Assay results reported in US20200237711A1, “Compositions for Treating and/or Preventing Cancer” (Boston Biomedical, Inc., priority 2017, published 2020).

Tests used:
[1] = Metabolism measurement of 2-acetylnaphtho[2,3-b]furan-4,9-dione in human liver cytosol fractions; type: in vitro ADME; details: [14C]-labeled compound 0.5 μmol/L, human liver cytosol 0.1 mg/mL, 37° C. (FIG. 7)
Description: A reaction solution obtained by dissolving a human liver cytosol (0.1 mg/mL) and NADPH (1 mmol/L) in a phosphate buffer solution was prepared. Into the reaction solution, [^14C]-labeled labeled 2-acetylnaphtho[2,3-b]furan-4,9-dione was added such that the dione concentration is 0.5 μmol/L, and thereby the reaction was started. After incubation at 37° C. for a given time, 0.1% formic acid-containing acetonitrile was added to terminate the reaction, and the mixture was centrifuged. After the supernatant was evaporated to dryness under a stream nitrogen gas, re-dissolving solvent [10 mmol/L ammonium acetate:acetonitrile, 9:1 (v/v)] was used to re-dissolve it, and then Radio-HPLC was used to measure radioactivity.

H460 cells [2] = assay: Cytotoxic effect (cell survival rate, Prest Blue), H460; type: cell-based, human; details: single agent treatment with 1.3 μmol/L, 6 hours (FIG. 12)
Description: (§1) A549 cells or H460 cells were seeded onto a 96-well culture plate (Corning) at 2×10^4/well, and then cultured at 37° C. under 5% carbon dioxide atmosphere in an incubator for 48 hours. […] After which, they were cultured in the presence or absence of a test compound (30 μmol/L of flufenamic acid, 100 μmol/L of flufenamic acid, or 100 μmol/L of mefenamic acid as a final concentration) for 6 hours, Prest Blue (Life Technologies) was added, and then incubated for 1 to 2 hours. After the incubation, absorbance at 570 nm was measured to evaluate the cytotoxicity. Absorbance of a well to which a cell had not been added (Ablank) is defined as the background, the cell survival rate was calculated using the following formula to divide a value obtained by multiplying 100 by a value obtained by subtracting the background absorbance from the absorbance of each well (Asample), by a value obtained by subtracting Ablank from the value (Acontrol) of a well in which a cell with no treatment with 2-acetylnaphtho[2,3-b]furan-4,9-dione or a metabolic inhibitor was contained.
(§2) Cell survival rate (%)=(Asample−Ablank)×100/(Acontrol−Ablank)

A549 cells [3] = assay: Cytotoxic effect (cell survival rate, Prest Blue), A549; type: cell-based, human; details: single agent treatment with 1.3 μmol/L, 6 hours (FIG. 12)
Description: as §1, §2

[4] = test system: metabolism of 2-acetylnaphtho[2,3-b]furan-4,9-dione in human liver cytosol; assay: Screening for an inhibitor of a metabolic enzyme (human liver cytosol, LC-MS/MS); type: biochemical; details: test drug 10 μmol/L, substrate 0.5 μmol/L, 37° C., 5 minutes (FIG. 9)
Description: To a reaction solution obtained by dissolving a human liver cytosol (0.1 mg/mL) and NADPH (1 mmol/L) in a phosphate buffer solution, a test drug (10 μmol/L) was added. Then, 2-acetylnaphtho[2,3-b]furan-4,9-dione was added to be 0.5 μmol/L and thereby the reaction was started. After incubation at 37° C. for 5 minutes, 50 nmol/L phenytoin solution, which had been dissolved in 0.1% formic acid-containing acetonitrile, was added and the reaction was terminated. After centrifugation, the resulting supernatant was measured using LC-MS/MS to quantify the residual amount of 2-acetylnaphtho[2,3-b]furan-4,9-dione, and the inhibition intensity of the test drugs was evaluated by comparison with the control group.

H460 cells [5] = assay: Intracellular concentration of 2-acetylnaphtho[2,3-b]furan-4,9-dione with a metabolic inhibitor, H460; type: cell-based, human; details: 1.0 μmol/L dione with 30 or 100 μmol/L inhibitor, 2 hours (FIG. 11)
Description: (§3) A549 cells or H460 cells were seeded onto a 96-well culture plate (made by Corning Inc.) at 2×10^4/well, and then cultured at 37° C. under 5% carbon dioxide atmosphere in an incubator for 48 hours. After which, they were cultured for 2 hours with 2-acetylnaphtho[2,3-b]furan-4,9-dione in a final concentration of 1.0 μmol/L and in the presence or absence of 30 μmol/L or 100 μmol/L of mefenamic acid or flufenamic acid, and then washed with PBS. After that, 80% methanol was added to each well to obtain a cell lysate. The cell lysate was analyzed using LC-MS/MS to determine the intracellular concentration of 2-acetylnaphtho[2,3-b]furan-4,9-dione.

A549 cells [6] = assay: Intracellular concentration of 2-acetylnaphtho[2,3-b]furan-4,9-dione with a metabolic inhibitor, A549; type: cell-based, human; details: 1.0 μmol/L dione with 30 or 100 μmol/L inhibitor, 2 hours (FIG. 11)
Description: as §3

[7] = test system: metabolism of 2-acetylnaphtho[2,3-b]furan-4,9-dione in human liver cytosol (AKR and CR); assay: Identification of a metabolic enzyme of 2-acetylnaphtho[2,3-b]furan-4,9-dione (CR/AKR inhibitors in human liver cytosol); type: biochemical; details: AKR inhibitor 1.0 μmol/L or 10 μmol/L, 5 minutes (FIG. 8)
Description: To a reaction solution obtained by dissolving a human liver cytosol (0.1 mg/mL) and NADPH (1 mmol/L) in a phosphate buffer solution, quercitrin (10 μmol/L or 100 μmol/L), which is a CR inhibitor, and phenolphthalein or medroxyprogesterone 17-acetate (1.0 μmol/L or 10 μmol/L), which is an AKR inhibitor, were added. Further, [^14C]-labeled 2-acetylnaphtho[2,3-b]furan-4,9-dione was added to the reaction solution such that the dione concentration is 0.5 μmol/L. After incubation at 37° C. for 5 minutes, Radio-HPLC was used to measure radioactivity.

[8] = Concentration in plasma and tumor by combination with mefenamic acid in tumor-bearing mice; type: in vivo, mouse; details: oral single dose
Description: The following administration solution (1), (2) or (3) was orally administered to 7 week aged mice (BALB/cAnNCrlCrlj, female, Charles River Laboratories Japan, Inc.) in a single time.
(1) 100 mg/kg of 2-acetylnaphtho[2,3-b]furan-4,9-dione
(2) 100 mg/kg of 2-acetylnaphtho[2,3-b]furan-4,9-dione and 100 mg/kg of mefenamic acid
(3) 100 mg/kg of 2-acetylnaphtho[2,3-b]furan-4,9-dione and 300 mg/kg of mefenamic acid
The blood was collected 2, 6, and 16 hours after the administration, and the blood was centrifuged to give plasma. Methanol was added to the plasma such that the final concentration of methanol is 80%, and then it was centrifuged. Further, protein-removing treatment was carried out by filtering through a filter, and then 2-acetylnaphtho[2,3-b]furan-4,9-dione was detected and quantified using LC-MS/MS (API4000, AB SCIEX). Meanwhile, a tumor mass was collected at the same time as the blood collection, 2-acetylnaphtho[2,3-b]furan-4,9-dione in the tumor was detected and quantified.

A549 cells [9] = assay: Anti-tumor effect in A549 tumor-bearing mice (tumor volume); type: in vivo, mouse; details: tumor volume (FIG. 15)
Description: A549 cells of 5×10^6 per individual were transplanted to a right belly part of a 5 week aged mouse (BALB/cAnNCrlCrlj, male, Charles River Laboratories Japan, Inc.). After one week, the following administration solution (1), (2), (3), (4) or (5) was orally administered in a single time. (1) 100 mg/kg of mefenamic acid (2) 30 mg/kg of 2-acetylnaphtho[2,3-b]furan-4,9-dione (3) 100 mg/kg of 2-acetylnaphtho[2,3-b]furan-4,9-dione (4) 30 mg/kg of 2-acetylnaphtho[2,3-b]furan-4,9-dione and 100 mg/kg of mefenamic acid (5) 100 mg/kg of 2-acetylnaphtho[2,3-b]furan-4,9-dione and 100 mg/kg of mefenamic acid According to a schedule in which an administration solution or an administration solution without an agent was continuously administered for five days and then medication was ceased for two days and continuous administration for five days was carried out again, it was orally administered one time a day. The major axis and the minor axis of a tumor mass were measured by vernier calipers at 2 to 5 day intervals, and the tumor volume was calculated by substituting them into the formula: (minor axis)^2×(major axis)/2.

[10] = Concentration in plasma by combination with sulindac in cancer-bearing mice; type: in vivo, mouse; details: oral single dose, 100 mg/kg dione with 25 mg/kg sulindac, two hours after administration (FIG. 14)
Description: The following administration solution (1) or (2) was orally administered to 8 week aged mice (BALB/cAnNCrlCrlj, female, Charles River Laboratories Japan, Inc.) in a single time. […] Methanol was added to the plasma such that the final concentration of methanol is 80%, and then it was centrifuged.

SMILES | inhibition of the metabolism of 2-acetylnaphtho[2,3-b]furan-4,9-dione (residual amount vs control) [4] | other results
CC(=O)c1cc2c(o1)C(=O)c1ccccc1C2=O [2-acetylnaphtho[2,3-b]furan-4,9-dione] | – | metabolism in liver cytosol ([1]; NADPH 1 mmol/L): time-dependently metabolized; metabolite mainly produced in liver cytosol ([1]; NADPH): 2-(1-hydroxyethyl)naphtho[2,3-b]furan-4,9-dione (M1); cell survival rate (H460 cells [2]): ≥ 100%; cell survival rate (A549 cells [3]): ≥ 100%
CCc1oc2ccccc2c1C(=O)c1cc(Br)c(O)c(Br)c1 [benzbromarone] | inhibited | –
CN(C)CCCN1c2ccccc2Sc2ccc(Cl)cc21 [chlorpromazine] | inhibited | –
C[C@H]1C[C@H]2[C@@H]3CCC4=CC(=O)C=C[C@]4(C)[C@@]3(F)[C@@H](O)C[C@]2(C)[C@@]1(O)C(=O)CCl [clobetasol] | inhibited | –
CC1CC2C3CCC4=CC(=O)C=CC4(C)C3(F)C(=O)CC2(C)C1(O)C(=O)CCl (centres unmarked) [clobetasone] | inhibited | –
COc1ccc(Cl)cc1C(=O)NCCc1ccc(S(=O)(=O)NC(=O)NC2CCCCC2)cc1 [glibenclamide] | inhibited | –
CCC1=C(C)CN(C(=O)NCCc2ccc(S(=O)(=O)NC(=O)N[C@H]3CC[C@H](C)CC3)cc2)C1=O [glimepiride] | inhibited | –
CC(=O)O[C@]1(C(C)=O)CC[C@H]2[C@@H]3C[C@H](C)C4=CC(=O)CC[C@]4(C)[C@H]3CC[C@@]21C [medroxyprogesterone 17-acetate] | – | inhibition of the metabolism of 2-acetylnaphtho[2,3-b]furan-4,9-dione [7]: more strongly inhibited than quercitrin
Cc1cccc(Nc2ccccc2C(=O)O)c1C [mefenamic acid] | inhibited | intracellular concentration of 2-acetylnaphtho[2,3-b]furan-4,9-dione in the presence of the metabolic inhibitor (H460 cells [5]): increased; concentration of 2-acetylnaphtho[2,3-b]furan-4,9-dione in tumor, combination vs single agent group ([8]; 100 mg/kg dione with 300 mg/kg of mefenamic acid (FIG. 13)): higher; concentration of 2-acetylnaphtho[2,3-b]furan-4,9-dione in plasma, combination vs single agent administration ([8]; 100 mg/kg dione with 100 or 300 mg/kg mefenamic acid, 2, 6, 16 hours (FIG. 13)): higher; intracellular concentration of 2-acetylnaphtho[2,3-b]furan-4,9-dione in the presence of the metabolic inhibitor (A549 cells [6]): increased; anti-tumor activity as a single agent (A549 cells [9]; 100 mg/kg oral once a day, 5 days on/2 off/5 on): no anti-tumor activity; anti-tumor activity of the combination with 2-acetylnaphtho[2,3-b]furan-4,9-dione vs the dione as a single agent (A549 cells [9]; 30 or 100 mg/kg dione and 100 mg/kg mefenamic acid oral once a day): significantly improved
O=C1OC(c2ccc(O)cc2)(c2ccc(O)cc2)c2ccccc21 [phenolphthalein] | – | inhibition of the metabolism of 2-acetylnaphtho[2,3-b]furan-4,9-dione [7]: more strongly inhibited than quercitrin
OCc1cc(C(O)CNCCCCCCOCCCCc2ccccc2)ccc1O (centres unmarked) [salmeterol] | inhibited | –
CC1=C(CC(=O)O)c2cc(F)ccc2/C1=C\c1ccc([S+](C)[O-])cc1 (centres unmarked) [sulindac] | inhibited | concentration of 2-acetylnaphtho[2,3-b]furan-4,9-dione in plasma, combination vs single agent administration [10]: higher

Now from value to compound, other results behind:

inhibition of the metabolism of 2-acetylnaphtho[2,3-b]furan-4,9-dione (residual amount vs control) [4] | SMILES | other results
inhibited | CC(=O)c1ccc(S(=O)(=O)NC(=O)NC2CCCCC2)cc1 [acetohexamide] | –
inhibited | Nc1ccc(S(=O)(=O)c2ccc(N)cc2)cc1 [dapsone] | –
inhibited | C#C[C@]1(O)CC[C@H]2[C@@H]3CCc4cc(O)ccc4[C@H]3CC[C@@]21C [ethynyl estradiol] | –
inhibited | O=C(O)c1ccccc1Nc1cccc(C(F)(F)F)c1 [flufenamic acid] | intracellular concentration of 2-acetylnaphtho[2,3-b]furan-4,9-dione in the presence of the metabolic inhibitor (H460 cells [5]): increased; intracellular concentration of 2-acetylnaphtho[2,3-b]furan-4,9-dione in the presence of the metabolic inhibitor (A549 cells [6]): increased
inhibited | CC(C(O)c1ccc(O)cc1)N1CCC(Cc2ccccc2)CC1 (centres unmarked) [ifenprodil] | –
inhibited | CC(=O)N1CCN(c2ccc(OCC3COC(Cn4ccnc4)(c4ccc(Cl)cc4Cl)O3)cc2)CC1 (centres unmarked) [ketoconazole] | –
inhibited | CCCCc1nc(Cl)c(CO)n1Cc1ccc(-c2ccccc2-c2nn[nH]n2)cc1 [losartan] | –
inhibited | Cc1ccc(Cl)c(Nc2ccccc2C(=O)O)c1Cl [meclofenamic acid] | –
